Experimental data taken from patent publication US12156938B2, “Liposomes for targeting tumor-associated macrophages” (Universiteit Twente, priority 2018, dated 2024).

What was measured:
4T1 breast tumor model [1] = assay: Effect of AS-loaded liposomes on pre-metastatic niche in liver and lungs (qPCR); type: in vivo, mice; settings: compared to the vehicle group
Protocol: (§1) For efficacy analysis of AS1517499-loaded liposomes, 1×10^5 Luc-cells were injected into the mammary fat pad, and tumors were allowed to develop to a size of 100 mm^3. Thereupon, treatment with AS1517499-loaded liposomes (8 mg/kg, intravenous administrations, twice a week) was started. Before sacrifice, mice were injected with 2.5 mg of D-Luciferin (Perkin-Elmer, Waltham, MA) and were imaged after 15 minutes to detect bioluminescence signal using a Pearl Trilogy imager (LICOR).
TAMs display a number of pro-tumoral functions, including extracellular matrix remodeling, neoangiogenesis, suppression of adaptive immunity and facilitate tumor metastasis (Allavena et al. 2012 Exp. Immunol. 167, 195-205, doi:10.1111/j.1365-2249.2011.04515.x). […] As most of cancer related mortalities occur due to metastasis, the effect of AS-loaded liposomes on the pre-metastatic niche in the organs (liver and lungs) of the 4T1 breast tumor was examined using qPCR analysis (FIG. 9).

[2] = test system: 4T1 orthotopic tumor model; settings: free AS1517499, 20 mg/kg; i.p route; cited from earlier work
4T1 breast tumor model [3] = assay: Efficacy of AS1517499-loaded liposomes on tumor growth in the 4T1 breast tumor model; type: in vivo, mice; settings: 8 mg/kg, intravenous route, twice weekly
Protocol: as §1
Mouse 4T1-Luc cells were injected orthotopic into the mammary fat pad of BalbC mice. The mice were randomly assigned into five groups: a) treated with PBS as the vehicle group, b) treated with free AS, c) treated with AS-HSPC liposomes, d) treated with AS-PAzPC liposomes, e) treated with empty PAzPC liposomes. […] Since the loading of the AS1517499 was little in the liposomes, 8 mg/kg was injected, intravenous route, twice weekly.

THP-1 macrophages [4] = assay: Cell growth after 24-hour treatment of MTP-PE and IFNγ; type: cell-based, human; settings: IFNγ 20 ng/ml
Protocol: FIG. 12. In vitro effects of MTP-PE and IFNγ in differentiated THP-1 macrophages. qPCR analysis of macrophage differentiation with MTP-PE with or without IFNγ for M1 markers IL-1β, IL-6, TNFα and M2 markers for DC-SIGN. […] B) The cell growth was evaluated after 24-hour treatment of MTP-PE and IFNγ C) MTP-PE, in synergy with IFNγ activates tumoricidal properties by inducing more M1 markers. Bars represent mean+SEM, n=3 *p<0.05, **p<0.005, ***p<0.001.
(§2) (IL-1β and TNFα) in TAMs, which indicates the switch of M2 macrophages toward M1 phenotype (FIG. 12A). In the second experiment, IFNγ, a well-known inducer of M1 macrophage differentiation, was tested (Sica et al. 2012 J. Clin. Invest. 122, 787-795, doi:10.1172/JCI59643), and MTP-PE to understand the role of IFNγ potentiation effect on macrophage reprogramming.

THP-1 macrophages [5] = assay: Effect of MTP-PE and IFNγ on differentiated THP-1 macrophages (qPCR); type: cell-based, human; settings: for DC-SIGN (M2 marker) expression in TAMs: second experiment, with or without IFNγ
Protocol: (§3) Macrophages were differentiated as reported in [7]. Briefly, THP-1 cells were treated for 24 hours with 100 ng/ml of phorbol 12-myristate 13-acetate (PMA, Cayman Chemicals) to allow their attachment. The medium was replaced by medium containing 20 ng/ml IL-4 and IL-13 (Peprotech, London, UK) for M2 differentiation, or 20 ng/ml IFNγ (Peprotech) and 100 ng/ml LPS (Sigma Aldrich) for M1 differentiation. Cells were incubated with cytokines for 24 hours (gene expression on differentiation), and 72 hours (liposome uptake experiments). BMDMs were plated overnight with a density of 50,000 cells/ml. After 24 hours, medium was aspirated. Cells were incubated for 24 hours in complete RPMI medium containing IL-4 and IL-13 at 10 ng/ml (M2 differentiation) or LPS and IFN-γ at 100 and 10 ng/ml. In case of RAW264.7 cells, M1 macrophages were differentiated using 10 ng-mL murine recombinant IFNγ and 10 ng-mL LPS. M2 macrophages were differentiated using 10 ng-mL murine IL-4 and IL-13.
(§4) 0.5×10^6 RAW264.7/THP-1 cells were plated in 12-well plates, if applicable treated with respective cytokines for differentiation, and activated using PMA. Cells were then incubated with different liposomal preparations (50 μM) or differentiation cytokines for 24 hours. BMDM were differentiated as described above. After differentiation, cells were washed with PBS and then lysed using lysis buffer and total RNA was isolated using SV Total RNA Isolation System (Promega, Madison, WI). cDNA was prepared by using iScript cDNA synthesis kit (Bio-Rad, Hercules, CA) and qRT-PCR was performed with 10 ng of cDNA per reaction mixture using SYBR green assay (Bioline, London, UK). Reactions were measured using the CFX384 Real-Time PCR detection system (Bio-Rad). The threshold cycles (Ct) values were calculated and relative gene expression (ddCt method) was analyzed after normalization using the Rsp18 (THP-1) or Gapdh (RAW264.7/BMDM) house-keeping gene.
Next, the effect of MTP-PE on differentiated human macrophages THP-1 was investigated.
as §2

RAW 264.7 macrophages = assay: Effect of MTP-PE on differentiated RAW 264.7 macrophages (qPCR); type: cell-based, murine
Protocol: as §3, §4
To study the effect of MTP-PE, murine macrophages RAW 264.7 were first differentiated with IFNγ and LPS for M1 and with IL-4 and IL-13 for M2 macrophages (TAM). […]

[6] = increasing concentrations of MTP-PE

| Molecule | CD31, collagen I, periostin, fibronectin expression in liver samples (4T1 breast tumor model [1]) | Premetastatic niche in liver [2] | Tumor volume compared to the vehicle group [2] | Tumor volume/weight compared to the vehicle group (4T1 breast tumor model [3]) | Cell growth (THP-1 macrophages [4]) | DC-SIGN gene expression (M2 differentiation) (THP-1 macrophages [5]; 1 and 10 ug/ml, first experiment) | M1 type differentiation markers in presence of M1 cytokines (THP-1 macrophages [5]; data not shown) | M1 cytokine markers (IL-1β and TNFα) in TAMs (THP-1 macrophages [5]; first experiment) | DC-SIGN (M2 marker) expression in TAMs (THP-1 macrophages [5]) | Cytokines (IL-1β, IL-6, TNFα) expression in M1 differentiation (RAW 264.7 macrophages; MTP-PE dose-dependent conc., in presence of IFNγ) | M2 macrophage markers (MRC-1, ARG-1) in M2 macrophages (RAW 264.7 macrophages; [6]) | TNFα expression in M2-type macrophages (RAW 264.7 macrophages; [6]) |
| --- | --- | --- | --- | --- | --- | --- | --- | --- | --- | --- | --- | --- |
| NC(=O)c1cnc(NCCc2ccc(O)c(Cl)c2)nc1NCc1ccccc1 [AS1517499] | no statistically significant difference | reduced premetastatic niche in liver | inhibited tumor volume significantly | no difference in tumor volume/weight | – | – | – | – | – | – | – | – |
| muramyl tripeptide-phosphatidyl ethanolamine [MTP-PE] | – | – | – | – | no direct effect on the cell growth | reduced expression of DC-SIGN gene | increased the M1 type differentiation markers | induced M1 cytokine markers | reduced the expression of DC-SIGN | increasing the cytokines (IL-1β, IL-6, TNFα) expression | did not show any inhibition | increased TNFα expression |
| IFNγ: cytokine that activates inflammatory M1-type macrophages (protein, UniProt P01579 24-161, looked up) Interferon gamma: QDPYVKEAENLKKYFNAGHSDVADNGTLFLGILKNWKEESDRKIMQSQIVSFYFKLFKNFKDDQSIQKSVETIKEDMNVKFFNSNKKKRDDFEKLTNYSVTDLNVQRKAIHELIQVMAELSPAAKTGKRKRSQMLFRG | – | – | – | – | reduced the cell growth significantly | – | – | – | increased expression of DC-SIGN | – | – | – |
